Assay results published in patent US9708336B2, “Metallo-beta-lactamase inhibitors” (priority 2014, dated 2017).
Where two headings read alike, the source gives them in different places.

Columns and labels:
NDM-1 = NDM-1 (Klebsiella pneumoniae, UniProt C7C422); experiment: biochemical; format: biochemical; details: read-out: NDM-1 IC50
IMP-1 = IMP-1 (Serratia marcescens, UniProt P52699); experiment: biochemical; format: biochemical; details: read-out: IMP-1 IC50
Experimental: Enzyme Activity: Determination of IC50
The Class B enzyme activities were measured in the presence of the test inhibitor in a fluorescence assay against a commercially available substrate consisting of a cephalosporin core linking 7-hydroxycoumarin to fluorescein (CCF2-FA). The enzyme (NDM-1, IMP-1 or VIM-1) and the substrate were diluted in 100 mM KH2PO4 buffer (pH 7) containing 0.005% Tween-20 and 10 μM ZnSO4. […] The test inhibitor was dissolved in dimethylsulfoxide and diluted 1:50 in the assay, resulting in a final concentration range of 20 uM to 0.00063 uM. In a 384-well microplate, the test inhibitor was incubated with the metallo-β-lactamase enzyme and the substrate for 2 hours at 25° C. Fluorescence at 460 nm following excitation at 405 nm was measured. The IC50 value was determined from semi-logarithmic plots of enzyme inhibition versus inhibitor concentration, with a curve generated using a 4-parameter fit.

VIM-1 = VIM-1 (Pseudomonas aeruginosa (strain ATCC 15692 / DSM 22644 / CIP 104116 / JCM 14847 / LMG 12228 / 1C / PRS 101 / PAO1), UniProt A0A0F7KYQ8); experiment: Enzyme activity: determination of IC50, fluorescence assay with CCF2-FA substrate (VIM-1); format: biochemical
[1] = test system: Escherichia coli expressing NDM-1 (CLB30016); experiment: Antibiotic potentiation activity: synergistic concentration (MITC95) with imipenem, OD600 growth; format: cell-based
Method in brief: (§1)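 Compound activity is tested with and without imipenem, which is present at 4 μg/ml (or 1 μg/ml) in the well. Bacteria in 1.1× CAMHB are incubated 22–24 h at 35 °C; absorbance gives the growth endpoint.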

[2] = test system: Klebsiella pneumoniae expressing VIM-1 (IHMA599644); experiment: as above; format: cell-based
Method in brief: as §1

[3] = test system: Serratia marcescens expressing IMP-1 (CL5741); experiment: as above; format: cell-based
Method in brief: as §1

[4] = NDM-1 enzyme, CCF2-FA substrate
[5] = IMP-1 enzyme, CCF2-FA substrate
[6] = VIM-1 enzyme, CCF2-FA substrate, read-out: VIM-1 IC50
[7] = (CLB30016, NDM-1), 95% growth inhibition
[8] = Klebsiella pneumoniae IHMA599644 (VIM-1), 95% growth inhibition
[9] = Serratia marcescens CL5741 (IMP-1), 95% growth inhibition
[10] = fluorescence assay with CCF2-FA substrate
[11] = VIM-1 IC50, fluorescence assay with CCF2-FA substrate
[12] = CLB30016 (NDM-1), 95% inhibition of bacterial growth
[13] = IHMA599644 (VIM-1), 95% inhibition of bacterial growth
[14] = CL5741 (IMP-1), 95% inhibition of bacterial growth
[15] = fluorescence assay with CCF2-FA substrate, read-out: VIM-1 IC50
[16] = NDM-1 enzyme, CCF2-FA fluorescence assay
[17] = IMP-1 enzyme, CCF2-FA fluorescence assay
[18] = VIM-1 enzyme, CCF2-FA fluorescence assay, read-out: VIM-1 IC50
[19] = Escherichia coli expressing NDM-1 (CLB30016), 95% growth inhibition
[20] = Klebsiella pneumoniae expressing VIM-1 (IHMA599644), 95% growth inhibition
[21] = Serratia marcescens expressing IMP-1 (CL5741), 95% growth inhibition
[22] = concentration giving 95% inhibition of bacterial growth

Sequence of IMP-1 (P52699 whole entry, looked up): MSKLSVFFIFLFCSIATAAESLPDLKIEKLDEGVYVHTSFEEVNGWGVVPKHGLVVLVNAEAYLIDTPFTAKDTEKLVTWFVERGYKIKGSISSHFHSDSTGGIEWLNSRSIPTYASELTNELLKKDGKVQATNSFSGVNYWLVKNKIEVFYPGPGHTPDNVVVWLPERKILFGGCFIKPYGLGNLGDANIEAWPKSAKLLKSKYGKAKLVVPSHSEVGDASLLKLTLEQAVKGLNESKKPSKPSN
Sequence of NDM-1 (C7C422 whole entry, looked up, species assumed): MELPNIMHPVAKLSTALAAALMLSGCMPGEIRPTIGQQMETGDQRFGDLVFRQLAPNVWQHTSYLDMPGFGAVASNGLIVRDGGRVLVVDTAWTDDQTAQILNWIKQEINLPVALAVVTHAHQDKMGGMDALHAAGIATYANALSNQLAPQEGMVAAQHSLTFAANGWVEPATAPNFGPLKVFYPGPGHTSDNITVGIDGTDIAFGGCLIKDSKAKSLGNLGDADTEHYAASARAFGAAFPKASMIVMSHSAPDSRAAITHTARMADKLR

SMILES	IC50 (NDM-1; [4]) [nM]	IC50 (IMP-1; [5]) [nM]	IC50 (VIM-1; [6]) [nM]	Escherichia coli MITC95 [1, 7] [µM]	Klebsiella pneumoniae MITC95 [2, 8] [µM]	Serratia marcescens MITC95 [3, 9] [µM]	IC50 (NDM-1; [10]) [nM]	IC50 (IMP-1; [10]) [nM]	Escherichia coli MITC95 [1, 12] [µM]	Klebsiella pneumoniae MITC95 [2, 13] [µM]	Serratia marcescens MITC95 [3, 14] [µM]	also measured
NS(=O)(=O)c1c(C(F)(F)F)ccc(-c2ccc3c(c2)CNCC3)c1-c1nnn[nH]1 [Example 720, 3-(1,2,3,4-tetrahydroisoquinolin-7-yl)-2-(1H-tetrazol-5-yl)-6-(trifluoromethyl)benzenesulfon-amide]	3.04	16.1	1.04	6.25	3.125	12.5	–	–	–	–	–	–
NCC1CCN(c2ccc(C(F)(F)F)c(S(N)(=O)=O)c2-c2nnn[nH]2)CC1 [Example 821, 3-[4-(aminomethyl)-1-piperidyl]-2-(1H-tetrazol-5-yl)-6-(trifluoromethyl)benzenesulfonamide]	–	–	–	–	–	–	18.1	55.1	12.5	12.5	6.25	IC50 (VIM-1; [11]): 0.496 nM
Nc1nc2cc(-c3ccc(C(F)(F)F)c(S(N)(=O)=O)c3-c3nnn[nH]3)ccc2s1 [Example 550, 3-(2-amino-1,3-benzothiazol-5-yl)-2-(1H-tetrazol-5-yl)-6-(trifluoromethyl)benzenesulfonamide]	0.753	2.52	0.315	3.125	12.5	3.125	–	–	–	–	–	–
Nc1cc(-c2cccc(S(N)(=O)=O)c2-c2nn[nH]n2)cnc1N [Example 523, 3-(5,6-Diaminopyridin-3-yl)-2-(2H-tetrazol-5-yl)benzenesulfonamide]	20.2	1210	226	0.125	4.125	9.375	–	–	–	–	–	–
NS(=O)(=O)c1c(C(F)(F)F)ccc(NC2(C3CCNC3)CC2)c1-c1nnn[nH]1 (stereo not drawn) [Example 777, 3-[(1-pyrrolidin-3-ylcyclopropyl)amino]-2-(1H-tetrazol-5-yl)-6-(trifluoromethyl) benzenesulfonamide]	–	–	–	–	–	–	23.3	51.3	12.5	6.25	12.5	IC50 (VIM-1; [15]): 6.73 nM
NS(=O)(=O)c1c(Br)ccc(-c2ccc3c(c2)CNC3)c1-c1nn[nH]n1 [Example 272, 6-bromo-3-(isoindolin-5-yl)-2-(2H-tetrazol-5-yl)benzenesulfonamide]	–	–	–	–	–	–	–	–	–	–	–	IC50 (NDM-1; [16]): 7.17 nM; IC50 (IMP-1; [17]): 49 nM; IC50 (VIM-1; [18]): 5.54 nM; Escherichia coli MITC95 [1, 19]: 0.7813 µM; Klebsiella pneumoniae MITC95 [2, 20]: 0.7813 µM; Serratia marcescens MITC95 [3, 21]: 1.563 µM
NC1CC(N[C@H]2CC[C@H](c3ccc(C(F)(F)F)c(S(N)(=O)=O)c3-c3nnn[nH]3)CC2)C1 (stereo partly drawn) [Example 702, 3-{4-[(3-aminocyclobutyl)amino]cyclohexyl}-2-(1H-tetrazol-5-yl)-6-(trifluoromethyl)benzene sulfonamide]	4.02	25.2	–	0.7813	1.563	3.125	–	–	–	–	–	IC50 (VIM-1; VIM-1 IC50, VIM-1 enzyme, CCF2-FA substrate): 2.25 nM
NS(=O)(=O)c1c(C(F)(F)F)ccc(N2CC[C@H](CO)[C@H](F)C2)c1-c1nnn[nH]1 [Example 663, 3-[(3S,4R)-3-fluoro-4-(hydroxymethyl)piperidin-1-yl]-2-(1H-tetrazol-5-yl)-6-(trifluoromethyl)benzenesulfonamide]	2.46	2.94	0.79	0.8906	3.125	0.125	–	–	–	–	–	–
NS(=O)(=O)c1cccc(-c2cnc3ccc(Cl)nn23)c1-c1nnn[nH]1 [Example 652, 3-(6-chloroimidazo[1,2-b]pyridazin-3-yl)-2-(1H-tetrazol-5-yl)benzenesulfonamide]	5.37	167	27.4	1.563	25	12.5	–	–	–	–	–	–
NS(=O)(=O)c1c(C(F)(F)F)ccc(-c2ccc(C3CCNCC3)nc2)c1-c1nnn[nH]1 [Example 744, 3-(6-piperidin-4-ylpyridin-3-yl)-2-(1H-tetrazol-5-yl)-6-(trifluoromethyl)benzenesulfon-amide]	–	–	–	–	–	–	16.3	18.1	6.25	12.5	12.5	IC50 (VIM-1; [11]): 0.907 nM
NS(=O)(=O)c1c(CC2CCNC2)ccc(-c2ccc(C3CCNCC3)cc2)c1-c1nn[nH]n1 (stereo not drawn) [Example 468, 4′-(piperidin-4-yl)-4-(pyrrolidin-3-ylmethyl)-2-(2H-tetrazol-5-yl)-[1,1′-biphenyl]-3-sulfonamide]	–	–	–	–	–	–	–	–	–	–	–	IC50 (NDM-1; [16]): 9.95 nM; IC50 (IMP-1; [17]): 13.5 nM; IC50 (VIM-1; [18]): 3.81 nM; Escherichia coli MITC95 [1, 19]: 0.7813 µM; Klebsiella pneumoniae MITC95 [2, 20]: 1.563 µM; Serratia marcescens MITC95 [3, 21]: 1.563 µM
NS(=O)(=O)c1c(C(F)(F)F)ccc(-c2ccc(C3CCN(C4CC5CCC4N5)CC3)cc2)c1-c1nnn[nH]1 (stereo not drawn) [Example 788, 4′-[1-(7-azabicyclo[2.2.1]hept-2-yl)piperidin-4-yl]-2-(1H-tetrazol-5-yl)-4-(trifluoromethyl)biphenyl-3-sulfonamide]	–	–	–	–	–	–	2.83	0.438	6.25	>200	6.25	IC50 (VIM-1; [11]): 35.7 nM
NS(=O)(=O)c1c(C2CC2)ccc(-c2ccnc3ccccc23)c1-c1nn[nH]n1 [Example 275, 6-cyclopropyl-3-(quinolin-4-yl)-2-(2H-tetrazol-5-yl)benzenesulfonamide]	–	–	–	–	–	–	–	–	–	–	–	IC50 (NDM-1; [16]): 3.68 nM; IC50 (IMP-1; [17]): 6.7 nM; IC50 (VIM-1; [18]): 0.637 nM; Escherichia coli MITC95 [1, 19]: 3.125 µM; Klebsiella pneumoniae MITC95 [2, 20]: 9.375 µM; Serratia marcescens MITC95 [3, 21]: 0.7813 µM
Cn1cncc1C1CCN(c2ccnc(S(N)(=O)=O)c2-c2nnn[nH]2)CC1 [Example 230, 4-[4-(1-methyl-1H-imidazol-5-yl)piperidin-1-yl]-3-(1H-tetrazol-5-yl)pyridine-2-sulfonamide]	–	–	–	–	–	–	206	797	–	–	–	IC50 (VIM-1; [11]): 164 nM; Escherichia coli expressing NDM-1 (CLB 30016) MITC95 [1, 22]: 1.563 µM; Klebsiella pneumoniae expressing VIM-1 (IHMA 599644) MITC95 [2, 22]: 37.5 µM; Serratia marcescens expressing IMP-1 (CL5741) MITC95 [3, 22]: 18.75 µM
NS(=O)(=O)c1c(C(F)(F)F)ccc(N2C[C@@H](O)[C@H](O)C2)c1-c1nnn[nH]1 [Example 756, 3-[(3R,4R)-3,4-dihydroxypyrrolidin-1-yl]-2-(1H-tetrazol-5-yl)-6-(trifluoromethyl) benzenesulfonamide]	–	–	–	–	–	–	78.1	89.1	12.5	>200	12.5	IC50 (VIM-1; [11]): 339 nM
C[C@@H](O)[C@H](NCc1ccc(-c2cccc(S(N)(=O)=O)c2-c2nnn[nH]2)cc1)C(=O)O [Example 357, N-{[3′-sulfamoyl-2′-(1H-tetrazol-5-yl)biphenyl-4-yl]methyl}-L-threonine]	–	–	–	–	–	–	–	–	–	–	–	IC50 (NDM-1; [16]): 12.5 nM; IC50 (IMP-1; [17]): 182 nM; IC50 (VIM-1; [18]): 287 nM; Escherichia coli MITC95 [1, 19]: 3.125 µM; Klebsiella pneumoniae MITC95 [2, 20]: 25 µM; Serratia marcescens MITC95 [3, 21]: 4.688 µM
NC(=O)C1CCCN(c2ccc(C(F)(F)F)c(S(N)(=O)=O)c2-c2nnn[nH]2)C1 (stereo not drawn) [Example 662, 1-[3-sulfamoyl-2-(1H-tetrazol-5-yl)-4-(trifluoromethyl)phenyl]piperidine-3-carboxamide]	11.6	37.1	4.58	6.25	12.5	1.953	–	–	–	–	–	–
Cc1ccc(-c2ccc(C(F)(F)F)c(S(N)(=O)=O)c2-c2nn[nH]n2)cc1 [Example 268, 4′-methyl-2-(2H-tetrazol-5-yl)-4-(trifluoromethyl)-[1,1′-biphenyl]-3-sulfonamide]	–	–	–	–	–	–	–	–	–	–	–	IC50 (NDM-1; [16]): 2.01 nM; IC50 (IMP-1; [17]): 1.64 nM; IC50 (VIM-1; [18]): 0.898 nM; Escherichia coli MITC95 [1, 19]: 2.229 µM; Klebsiella pneumoniae MITC95 [2, 20]: 9.375 µM; Serratia marcescens MITC95 [3, 21]: 0.25 µM
N=C(N)NC1CCN(c2ccc(C(F)(F)F)c(S(N)(=O)=O)c2-c2nnn[nH]2)CC1 [Example 824, 1-[1-[3-sulfamoyl-2-(1H-tetrazol-5-yl)-4-(trifluoromethyl)phenyl]-4-piperidyl]guanidine]	–	–	–	–	–	–	53.1	59.2	1.563	0.7813	0.7813	IC50 (VIM-1; [15]): 0.702 nM
